A word on the IC50: it is the midpoint of a concentration-inhibition curve. High values mean lower potency, low ones higher potency. A word on the inhibition: it is the percentage by which the read-out fell short of the control. Lower therefore signals little suppression.

These results are taken from US20260138962A1, “SYNTHESIS OF DERIVATIVES OF SIPH[…] THERAPEUTIC USE THEREOF” (priority 2022, published 2026).

Holding throughout (assay): microbe, parasite or virus in culture
Format in all cases: cell-based

For one assay, the system named is SARS-CoV-2 Delta variant. As to conditions: Severe acute respiratory syndrome coronavirus 2, Vero C1008.
A further assay concerns SARS-CoV-2 Beta variant. The note with it: Severe acute respiratory syndrome coronavirus 2, Vero C1008.
Assay [1] deals with SARS-CoV-2 Wuhan isolate (wild type). As to conditions: Severe acute respiratory syndrome coronavirus 2, Vero C1008; positive control at 3.77 μg/ml; […].
Where [2] appears, read: positive control at 3.77 μg/ml, […].

≈ marks a conversion by molar mass, not a printed value.

Regarding `CC1=C2C[C@@H]3[C@@H](C)C=CC(=O)[C@@]3(C)C[C@@]2(O)OC1=O` [HLS, (4aR,5S,8aS,9aR)-9a-hydroxy-3,5,8a-trimethyl-4a,5,9,9a-tetrahydronaphtho[2,3-b]furan-2,8(4H,8aH)-dione], the IC50 in the assay with SARS-CoV-2 Delta variant (Delta strain, in vitro) turned out to be 6.15 µg/mL (≈ 23.4 µM); in the assay on SARS-CoV-2 Beta variant (Beta strain, in vitro), 8.93 µg/mL (≈ 34 µM). Also, the inhibition at 0.5 µg/mL in the assay with SARS-CoV-2 Delta variant (Delta, 0.5 μg/ml, Vero E6 cells) came out at 0%; in the assay on SARS-CoV-2 Beta variant (Beta, 0.5 μg/ml, Vero E6 cells), 25%. The inhibition at 2 µg/mL with SARS-CoV-2 Delta variant (Delta, 2 μg/ml, Vero E6 cells) turned out to be 25%; with SARS-CoV-2 Beta variant (Beta, 2 μg/ml, Vero E6 cells), 25%. Besides, the inhibition at 5 µg/mL was 50% with SARS-CoV-2 Delta variant (Delta, 5 μg/ml, Vero E6 cells) and 50% in the assay on SARS-CoV-2 Beta variant (Beta, 5 μg/ml, Vero E6 cells). In addition, the inhibition at 16 µg/mL came out at 75% in the assay with SARS-CoV-2 Delta variant (Delta, 16 μg/ml, Vero E6 cells) and 75% in the assay on SARS-CoV-2 Beta variant (Beta, 16 μg/ml, Vero E6 cells). The inhibition at 50 µg/mL was 100% in the assay on SARS-CoV-2 Delta variant (Delta, 50 μg/ml, Vero E6 cells) and 100% in the assay on SARS-CoV-2 Beta variant (Beta, 50 μg/ml, Vero E6 cells).

Regarding `CCC(CC)COC(=O)[C@H](C)N[P@](=O)(OC[C@H]1O[C@@](C#N)(c2ccc3c(N)ncnn23)[C@H](O)[C@@H]1O)Oc1ccccc1` [Remdesivir, reference compound], the inhibition at 3.77 µg/mL (in the assay with SARS-CoV-2 Delta variant (setting [2]); in assay [1]; in the assay with SARS-CoV-2 Beta variant (setting [2])) was 100% throughout.
